Data as given in publication PMC7828231, “Delphinidin Increases the Sensitivity of Ovarian Cancer Cell Lines to 3-bromopyruvate” (International Journal of Molecular Sciences, 2021).

How the values were obtained:
[1] = test system: not multi-resistant SKOV3 cells; set-up: method as in PMID 22954696; conditions: cited from earlier work
[2] = test system: Multidrug-resistant SKOV3 cells; set-up: method as in PMID 22954696; conditions: cited from earlier work
PEO1 cells = assay: Cell migration (scraped area closure); assay type: cell-based, human
Protocol: Ovarian cancer cells and human normal fibroblasts were seeded on a 24-well plate at a density of 7 × 10^4/well (PEO1), 6.5 × 10^4/well (SKOV3) and 6 × 10^4/well (MRC-5) in 700 µL of appropriate cell medium and cultured at 37 °C to reach 90–95% confluence. Then, the cells in the middle of the wells were scraped off using sterile pipette tips (100 µL), cell debris was removed by washing with medium containing 2% FBS and the tested compounds diluted with medium containing 2% FBS were added. Images of the scraped area were collected after 12 h and 24 h at 10× objective magnification using an Olympus CKX53 microscope with a U-TV0. 5XC-3 digital microscope camera. The obtained results were analyzed using ImageJ software. The percentage of scraped area closure was estimated as the ratio of area measured after 12- or 24-h incubation and the area at the beginning of the experiment.

four OC cell lines = test system: four OC cell lines; set-up: method as in PMID 26259240; conditions: cited from earlier work
MCF-7 = test system: MCF-7; set-up: method as in PMID 15680311; conditions: MCF-7, 50–200 µM; cited from earlier work
NCI-H441 cells = test system: NCI-H441 cells; set-up: method as in PMID 24124611; conditions: cited from earlier work
A549 cells = test system: A549 cells; set-up: method as in PMID 24124611; conditions: cited from earlier work
NHF cells = test system: NHF cells; set-up: method as in PMID 15016660; conditions: 100–200 µM; cited from earlier work
SK-MES-1 cells = test system: SK-MES-1 cells; set-up: method as in PMID 24124611; conditions: cited from earlier work
glyoxalase I = target: glyoxalase I; set-up: method as in PMID 20801663; conditions: read-out: IC50 for glyoxalase I inhibition; cited from earlier work
[3] = set-up: method as in PMID 17729219; conditions: DMEM medium, after 30 min; cited from earlier work
HeLa cells = test system: HeLa cells; set-up: method as in PMID 15016660; conditions: 100–200 µM; cited from earlier work
Caco-2 cells = test system: Caco-2 cells; set-up: method as in PMID 15016660; conditions: Caco-2, 100–200 µM; cited from earlier work
SF-268 cells = test system: SF-268 cells; set-up: method as in PMID 15680311; conditions: SF-268, 50–200 µM; cited from earlier work
AGS cells = test system: AGS cells; set-up: method as in PMID 15680311; conditions: 50–200 µM; cited from earlier work
SKOV3 cells = assay: Apoptosis and necrosis assay (RealTime-Glo Annexin V); assay type: cell-based, human; conditions: after 24 h
Protocol: The levels of apoptosis and necrosis were assayed using the RealTime-Glo™ Annexin V Apoptosis and Necrosis Assay. Cells were seeded into a white 96-well plate with optical bottom, cultured and treated adequately, as stated above. After 24 h, 100 μL of the freshly prepared reagent was added to each well according to the manufacturer’s protocols. The fluorescence and luminescence were measured according to the protocols.

[4] = test system: LoVo cell subline resistant to adriamycin; set-up: method as in PMID 20494645; conditions: cited from earlier work
NCI H460 cells = test system: NCI H460 cells; set-up: method as in PMID 15680311; conditions: NCI H460, 50–200 µM; cited from earlier work
PC3 cell line = test system: PC3 cell line; set-up: method as in PMID 27462923; conditions: PC3, up to 150 µM; cited from earlier work
22Rν1 cells = test system: 22Rν1 cells; set-up: method as in PMID 18948740; conditions: cited from earlier work
HT29 cells = test system: HT29 cells; set-up: method as in PMID 17729219; conditions: cited from earlier work
HCT116 cells = test system: HCT116 cells; set-up: method as in PMID 18729103; conditions: cited from earlier work
DU145 cell line = test system: DU145 cell line; set-up: method as in PMID 27462923; conditions: DU145, up to 150 µM; cited from earlier work

In the case of O=C(O)C(=O)CBr [3-BP, 3-bromopyruvic acid], the IC50 [1] is given as 19 ± 3 µM, the IC50 [2] is given as 22 ± 4 µM and the cell migration (PEO1 cells) is given as “significantly inhibited”. For the same compound, the IC50 (four OC cell lines) was 16 to 84 µM.

For Oc1cc(O)c2cc(O)c(-c3cc(O)c(O)c(O)c3)[o+]c2c1 [Delphinidin chloride, 3,3′,4′,5,5′,7-hexahydroxyflavylium], the viability (MCF-7) is listed as “decreased, concentration-dependently, the viability”, the IC50 (NCI-H441 cells) is listed as 58 µM and the IC50 (A549 cells) is listed as 55 µM. The viability (NHF cells) was “decreased the viability”, the IC50 (SK-MES-1 cells) was 44 µM and the IC50 (glyoxalase I) was 1.9 µM. For the same compound, the “stability in cell culture medium” value [3] was “not detectable”, the viability (HeLa cells) was “decreased the viability” and the viability (Caco-2 cells) was “decreased the viability”. The viability (SF-268 cells) was “did not affect significantly the viability”, the viability (AGS cells) was “did not affect significantly the viability” and the induction of apoptosis (SKOV3 cells) was “induced apoptosis”. The IC50 [4] was 16 ± 2 µM, the viability (NCI H460 cells) was “did not affect significantly the viability” and the viability (PC3 cell line) was “did not affect the viability”. The IC50 (22Rν1 cells) was 90 µM, the IC50 (HT29 cells) was 35 µM and the IC50 (HCT116 cells) was 110 µM. For the same compound, the viability (DU145 cell line) was “did not affect the viability”.
